Target: BTK protein kinase (Homo sapiens, UniProt Q06187)
Assay: In vitro enzymatic activity against BTK (ADP-Glo)
Format: biochemical
Conditions: compound with BTK 4 hours at room temperature; ATP 10 μM, 37° C. 1 hour; values in nM
Protocol: In vitro enzymatic activity of the compounds against BTK was determined in a experimental assay of in vitro enzymatic activity using […] kit (purchased from Progema, USA).
9 μL of BTK protein kinase (at a concentration of 1.5 ng/μL) was used to react with compounds (1 μL) shown in the following table that were diluted three times in gradient at room temperature for 4 hours (the final concentration of the compound being 10 μM, 3 μM, 1 μM, 0.3 μM, 0.1 μM, 0.03 μM, 0.01 μM, 0.003 μM);
2 μL of ATP and 3 μL of the substrate Poly(4:1 Glu, Tyr)Peptide (Promega, USA) (the final concentrations being 10 μM and 0.2 μg/μL, respectively) were added to allow reaction at 37° C. for 1 hour;
5 μL of BTK kinase solution after reaction was taken and added into 5 μL of ADP-Glo™ (Promega, USA) reagent to allow reaction at room temperature for 40 mins so as to terminate the kinase reaction and exhaust the remaining ATP;
10 μL kinase detecting reagent was added to convert ADP to ATP, and newly synthesized ATP was detected using coupled luciferase/[…] reaction, then the IC50 values were calculated by using a plotting method based on the Envision reading.

Sequence of BTK protein kinase (Q06187 whole entry): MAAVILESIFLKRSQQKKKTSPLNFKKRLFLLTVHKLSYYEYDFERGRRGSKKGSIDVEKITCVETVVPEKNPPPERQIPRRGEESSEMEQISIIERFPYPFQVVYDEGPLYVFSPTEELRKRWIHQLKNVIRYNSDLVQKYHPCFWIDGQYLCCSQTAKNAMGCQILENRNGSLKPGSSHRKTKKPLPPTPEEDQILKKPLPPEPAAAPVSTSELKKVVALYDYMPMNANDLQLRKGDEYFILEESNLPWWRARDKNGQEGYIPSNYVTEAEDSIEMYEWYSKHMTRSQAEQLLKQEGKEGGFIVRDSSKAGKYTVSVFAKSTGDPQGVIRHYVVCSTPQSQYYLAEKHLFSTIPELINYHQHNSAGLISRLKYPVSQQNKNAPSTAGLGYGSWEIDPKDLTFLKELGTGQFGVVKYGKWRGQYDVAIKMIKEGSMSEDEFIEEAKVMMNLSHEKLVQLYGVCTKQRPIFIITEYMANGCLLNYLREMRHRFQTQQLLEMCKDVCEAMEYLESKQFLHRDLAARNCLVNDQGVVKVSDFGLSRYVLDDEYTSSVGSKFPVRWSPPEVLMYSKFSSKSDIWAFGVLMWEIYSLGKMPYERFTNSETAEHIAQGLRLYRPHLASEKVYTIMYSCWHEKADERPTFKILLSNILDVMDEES

| IC50 | Structure (SMILES) |
| --- | --- |
| 124 nM | C=CC(=O)Nc1cc(Nc2cc(-c3cccc(NC(=O)c4ccc(N(C)C)cc4)c3C)cn(C)c2=O)ccc1C(=O)N1CCC(O)CC1 [Compound 56, N-(3-(5-((3-acrylamide-4-(4-hydroxypiperdin-1-carbonyl)phenyl)amino)-1-methyl-6-oxo-1,6-dihydropyridin-3-yl)-2-methylphenyl)-4-(dimethylamino)benzoylamide] |
| > 10000 nM | C=CC(=O)Nc1cc(Nc2cc(-c3cccc(NC(=O)c4cccc(C(F)(F)F)c4)c3C)cn(C)c2=O)ccc1C(=O)N1CCOCC1 [Compound 57, N-(3-(5-((3-acrylamide-4-(morpholin-4-carbonyl)phenyl)amino)-1-methyl-6-oxo-1,6-dihydropyridin-3-yl)-2-methylphenyl)-3-(trifluoromethyl)benzoylamide] |
| 816 nM | C=CC(=O)Nc1cc(Nc2cc(-c3cccc(NC(=O)c4cccc(OC)c4)c3C)cn(C)c2=O)ccc1C(=O)N1CCOCC1 [Compound 59, N-(3-(5-((3-acrylamide-4-(morpholin-4-carbonyl)phenyl)amino)-1-methyl-6-oxo-1,6-dihydropyridin-3-yl)-2-methylphenyl)-3-methoxy Benzoylamide] |
| 104 nM | C=CC(=O)Nc1cc(Nc2cc(-c3cccc(NC(=O)c4ccc(C(F)(F)F)cc4)c3C)cn(C)c2=O)ccc1C(=O)N1CCOCC1 [Compound 60, N-(3-(5-((3-acrylamide-4-(morpholin-4-carbonyl)phenyl)amino)-1-methyl-6-oxo-1,6-dihydropyridin-3-yl)-2-methylphenyl)-4-(trifluoromethyl)benzoylamide] |
| 164 nM | C=CC(=O)Nc1cc(Nc2cc(-c3cccc(NC(=O)c4ccc(CC)cc4)c3C)cn(C)c2=O)ccc1C(=O)N1CCOCC1 [Compound 62, N-(3-(5-((3-acrylamide-4-(morpholin-4-carbonyl)phenyl)amino)-1-methyl-6-oxo-1,6-dihydropyridin-3-yl)-2-methylphenyl)-4-ethylbenzoylamide] |
| 800 nM | C=CC(=O)Nc1cc(Nc2cc(-c3cccc(NC(=O)c4ccc(C)c(C(F)(F)F)c4)c3C)cn(C)c2=O)ccc1C(=O)N1CCOCC1 [Compound 63, N-(3-(5-((3-acrylamide-4-(morpholin-4-carbonyl)phenyl)amino)-1-methyl-6-oxo-1,6-dihydropyridin-3-yl)-2-methylphenyl)-4-methyl-3-(trifluoromethyl)benzoylamide] |
| 22 nM | C=CC(=O)Nc1cc(Nc2cc(-c3cccc(NC(=O)c4ccc(C(C)C)cc4)c3C)cn(C)c2=O)ccc1C(=O)N1CCOCC1 [Compound 64, N-(3-(5-((3-acrylamide-4-(morpholin-4-carbonyl)phenyl)amino)-1-methyl-6-oxo-1,6-dihydropyridin-3-yl)-2-methylphenyl)-4-isopropylbenzoylamide] |
| 25 nM | C=CC(=O)Nc1cc(Nc2cc(-c3cccc(NC(=O)c4cc5c(s4)CCCC5)c3C)cn(C)c2=O)ccc1C(=O)N1CCOCC1 [Compound 65, N-(3-(5-((3-acrylamide-4-(morpholin-4-carbonyl)phenyl)amino)-1-methyl-6-oxo-1,6-dihydropyridin-3-yl)-2-methylphenyl)-4,5,6,7-tetrahydrobenzo[b]thiophene-2-carboxamide] |
| 180 nM | C=CC(=O)Nc1cc(Nc2cc(-c3cccc(NC(=O)c4ccc(C5CC5)cc4)c3C)cn(C)c2=O)ccc1C(=O)N1CCOCC1 [Compound 66, N-(3-(5-((3-acrylamide-4-(morpholin-4-carbonyl)phenyl)amino)-1-methyl-6-oxo-1,6-dihydropyridin-3-yl)-2-methylphenyl)-4-cyclopropylbenzoylamide] |
| 25 nM | CCC(=O)Nc1cc(Nc2cc(-c3cccc(NC(=O)c4cc5c(s4)CCCC5)c3C)cn(C)c2=O)ccc1C(=O)N1CCOCC1 [Compound 67, N-(3-(5-((3-propanamide-4-(morpholin-4-carbonyl)phenyl)amino)-1-methyl-6-oxo-1,6-dihydropyridin-3-yl)-2-methylphenyl)-4,5,6,7-tetrahydrobenzo[b]thiophene-2-carboxamide] |
